Where a name gives a salt, the structure may show the parent alone.

Data on 37 molecules can be found in patent US4229448A, “5-Substituted picolinic acid derivatives and an anti-hypertensive composition containing the same” (Meuji Seika Kaisha Ltd., priority 1978, dated 1980).

Data set [1] relates to spontaneously hypertensive rats. Kind of data set: Blood pressure changes, Direct Blood Pressure Measuring Method, oral administration (Table 1). The settings on record: Rattus norvegicus, read-out: Maximum Depression in Blood Pressure. The format is in vivo.
Description: Each of the compounds of the invention as indicated below was suspended in a 5% aqueous gum arabic solution and the suspension was administered orally (100 mg/kg) to groups consisting of three spontaneously hypertensive rats (18-23 week old; blood pressure before administration: 170-190 mmHg).
Data set [2] in a line: Acute toxicity (LD50), intraperitoneal (Table 1). The format is in vivo. The settings on record: mouse, in vivo, ip, male ICR mice, 5 week old, observed 1 week after administration.
The subject of data set [3] is spontaneously hypertensive rats. Kind of data set: Blood pressure changes, Tail Cuff Method, oral administration (Table 2). The format is in vivo. The settings on record: Rattus norvegicus, 100 mg/kg orally, read-out: Maximum Depression in Blood Pressure. The protocol: Each of the compounds of the invention as indicated below was suspended in a 5% aqueous gum arabic solution and the suspension was administered orally to groups consisting of three spontaneously hypertensive rats (17-23 week old; blood pressure before administration: 170-190 mmHg).

A short description of the next data set: Oral LD50. The settings on record: in vivo.
Data set [4] relates to male mice (ICR strain, 5 week old). Nature of the data set: Acute toxicity (LD50), intraperitoneal (Table 1). The settings on record: observed 1 week after administration, 10080 min. The data set is classed as in vivo.
For data set [5] the following is noted: prior art; cited from earlier work.
For data set [6] the following is noted: prior art; cited from earlier work. The source holds these as a separate data set.
The nature of another data set: Water solubility. The format is physicochemical. The settings on record: suited for subcutaneous injection.
The mark [7] stands for this setting: 100 mg/kg orally, spontaneously hypertensive rats, Direct Blood Pressure Measuring Method.

For orientation: LD50 means the dose expected to kill half of the subjects tested. Lower therefore signals a more toxic substance. As to `O=C(O)c1ccc(Oc2ccc(Cl)cc2Cl)cn1` [5-(2,4-Dichlorophenoxy)picolinic Acid], the inhibition in vivo at 100 mg/kg in data set [1] (setting [7]) is 24.6%. The same molecule showed an LD50 at 168 h in data set [2] of 150 to 200 mg/kg.
The corresponding values for `COc1ccc(Oc2ccc(C(=O)O)nc2)c(OC)c1` [5-(2,4-Dimethoxyphenoxy)picolinic Acid] are 19.2% and 400 to 450 mg/kg.
In the same order, the values of `Cc1ccc(Oc2ccc(C(=O)O)nc2)c(C)c1` [5-(2,4-Dimethylphenoxy)picolinic Acid] are 16.9% and 250 to 300 mg/kg.
In the same order, the values of `O=C(O)c1ccc(Oc2ccc(C(F)(F)F)cc2C(F)(F)F)cn1` [5-(2,4-Ditrifluoromethylphenoxy)picolinic Acid] are 25.5% and 200 to 250 mg/kg.
In the case of `O=C(O)c1ccc(Oc2c(Cl)cccc2Cl)cn1` [5-(2,6-Dichlorophenoxy)picolinic Acid], the inhibition in vivo at 100 mg/kg in data set [1] (setting [7]) stood at 23.7%. For the same molecule, in data set [2], the LD50 at 168 h fell in the range of 150 to 200 mg/kg.
Turning to `O=C(O)c1ccc(OCCCCl)cn1` [5-(3-Chloropropoxy)picolinic Acid, 5-(3-chloropropoxy)picolinic acid], in data set [1] (setting [7]), the inhibition in vivo at 100 mg/kg stood at 18.2%. The same molecule returned an LD50 at 168 h in data set [2] of 150 to 200 mg/kg.
Consider `NC(=O)c1ccc(OCCCCCl)cn1` [5-(4-Chlorobutoxy)picolinic Acid Amide, 5-(4-chlorobutoxy)picolinic acid amide], for which the inhibition in vivo at 100 mg/kg in data set [3] turned out to be 21.5%. For the same molecule, in the data set “Oral LD50”, the LD50 was in the range of 1500 to 1600 mg/kg.
For `O=C(O)c1ccc(OCCCCCl)cn1` [5-(4-Chlorobutoxy)picolinic Acid, 5-(4-chlorobutoxy)picolinic acid], in “Oral LD50”, the LD50 was determined as 900 mg/kg. For the same molecule, in data set [1] (setting [7]), the inhibition in vivo at 100 mg/kg stood at 23%. Further, the “Acute Toxicity (LD50)” value in data set [4] was in the range of 150 to 200 mg/kg.
On to `O=C(O)c1ccc(OCCCCC(F)(F)F)cn1` [5-(5,5,5-Trifluoropentyloxy)picolinic Acid] [5-(5,5,5-trifluoropentyloxy)picolinicacid], for which, in data set [4], the “Acute Toxicity (LD50)” value fell in the range of 150 to 200 mg/kg.
Turning to `O=C(O)c1ccc(OCCCCC(F)(F)F)cn1` [5-(5,5,5-trifluoropentyloxy)picolinicacid], the inhibition in vivo at 100 mg/kg in data set [1] (setting [7]) is 28.7%.
Regarding `O=C(O)c1ccc(Oc2cccc(Cl)c2)cn1` [5-(m-Chlorophenoxy)picolinic Acid, 5-(m-chlorophenoxy)picolinic acid], the inhibition in vivo at 100 mg/kg in data set [1] (setting [7]) was 16.7%. In data set [2], this molecule yielded an LD50 at 168 h of 300 to 400 mg/kg.
The corresponding values for `O=C(O)c1ccc(Oc2cccc(C(F)(F)F)c2)cn1` [5-(m-trifluoromethylphenoxy)picolinic acid] are 20.8% and 500 to 600 mg/kg.
For the molecule `NC(=O)c1ccc(Oc2ccccc2Cl)cn1` [5-(o-Chlorophenoxy)picolinic Acid Amide], the inhibition in vivo at 100 mg/kg in data set [3] turned out to be 19.6%.
In “Oral LD50”, `O=C(O)c1ccc(Oc2ccccc2Cl)cn1` [5-(o-Chlorophenoxy)picolinic Acid, 5-(o-chlorophenoxy)picolinic acid] came in with an LD50 of 400 to 600 mg/kg. The inhibition in vivo at 100 mg/kg in data set [1] (setting [7]) is 30.1%. The molecule further displayed an LD50 at 168 h in data set [2] of 150 to 200 mg/kg.
With `NC(=O)c1ccc(Oc2ccccc2C(F)(F)F)cn1` [5-(o-trifluoromethylphenoxy)picolinic acid amide], in data set [3], the inhibition in vivo at 100 mg/kg came to 20.7%. Further, the LD50 in “Oral LD50” was found to be 950 mg/kg.
For the molecule `O=C(O)c1ccc(Oc2ccccc2C(F)(F)F)cn1` [5-(o-trifluoromethylphenoxy)picolinic acid], the LD50 in “Oral LD50” was in the range of 400 to 600 mg/kg. In data set [1] (setting [7]), the inhibition in vivo at 100 mg/kg was 27.6%. In data set [2], this molecule returned an LD50 at 168 h of 150 to 200 mg/kg.
`CC(=O)c1ccc(Oc2ccc(C(=O)O)nc2)cc1` [5-(p-Acetylphenoxy)picolinic Acid]: the inhibition in vivo at 100 mg/kg in data set [1] (setting [7]) stood at 17.3%. Also, in data set [2], the LD50 at 168 h was in the range of 400 to 500 mg/kg.
In the same order, the values of `O=C(O)c1ccc(Oc2ccc(Br)cc2)cn1` [5-(p-Bromophenoxy)picolinic Acid, 5-(p-bromophenoxy)picolinic acid] are 27.5% and 150 to 200 mg/kg.
`NC(=O)c1ccc(Oc2ccc(Cl)cc2)cn1` [5-(p-Chlorophenoxy)picolinic Acid Amide, 5-(p-chlorophenoxy)picolinic acid amide]: the inhibition in vivo at 100 mg/kg in data set [3] came to 23.7%.
In the data set “Oral LD50”, `O=C(O)c1ccc(Oc2ccc(Cl)cc2)cn1` [5-(p-Chlorophenoxy)picolinic Acid, 5-(p-chlorophenoxy)picolinic acid] had an LD50 of 400 to 600 mg/kg. Moreover, the inhibition in vivo at 100 mg/kg in data set [1] (setting [7]) worked out at 28.3%. In data set [4], the “Acute Toxicity (LD50)” value fell in the range of 150 to 200 mg/kg.
Regarding `COc1ccc(Oc2ccc(C(=O)O)nc2)cc1` [5-(p-Methoxyphenoxy)picolinic Acid, 5-(p-methoxyphenoxy)picolinic acid], the inhibition in vivo at 100 mg/kg in data set [1] (setting [7]) turned out to be 14.2%. In addition, the median lethal dose (LD50) at 168 h in data set [2] fell in the range of 500 to 600 mg/kg.
In the same order, the values of `Cc1ccc(Oc2ccc(C(=O)O)nc2)cc1` [5-(p-Methylphenoxy)picolinic Acid, 5-(p-methylphenoxy)picolinic acid] are 17% and 200 to 300 mg/kg.
The corresponding values for `O=C(O)c1ccc(Oc2ccc([N+](=O)[O-])cc2)cn1` [5-(p-Nitrophenoxy)picolinic Acid, 5-(p-nitrophenoxy)picolinic acid] are 15.1% and 500 to 600 mg/kg.
Consider `Cl.Cl.Nc1ccc(Oc2ccc(C(=O)O)nc2)cc1` [5-(p-aminophenoxy)picolinic acid dihydrochloride], for which, in data set [1] (setting [7]), the inhibition in vivo at 100 mg/kg amounted to 8.3%. In addition, the LD50 at 168 h in data set [2] was 450 to 500 mg/kg.
In the same order, the values of `O=C(O)c1ccc(Oc2ccc(C(F)(F)F)cc2)cn1` [5-(p-trifluoromethylphenoxy)picolinic acid] are 29.3% and 200 to 250 mg/kg.
With `O=C(Oc1ccc2c(c1)CCC2)c1ccc(OCCCCCl)cn1` [5-indanyl ester of 5-(4-chlorobutoxy)picolinic acid], in data set [3], the inhibition in vivo at 100 mg/kg was found to be 26.3%. The molecule further yielded an LD50 in “Oral LD50” of 1600 to 1800 mg/kg.
Regarding `CCCCOc1ccc(C(=O)O)nc1` [5-n-Butoxy-picolinic Acid, reference compound], the inhibition in vivo at 100 mg/kg in data set [1] (setting [7]) is 16.6%. Moreover, in data set [2], the LD50 at 168 h fell in the range of 100 to 150 mg/kg.
In the case of `O=C(O)c1ccc(OCCCCCl)cn1` [Calcium Salt of 5-(4-Chlorobutoxy)picolinic Acid] [Calcium 5-(4-chlorobutoxy)picolinate], the “Acute Toxicity (LD50)” value in data set [4] lay in the range of 800 to 1000 mg/kg.
Still for that read-out and setting: the figure for `O=C(O)c1ccc(OCCCCC(F)(F)F)cn1` [Calcium Salt of 5-(5,5,5-Trifluoropentyloxy)picolinic Acid] [Calcium 5-(5,5,5-trifluoropentyloxy)picolinate] is 800 to 900 mg/kg; for `O=C(O)c1ccc(Oc2ccc(Cl)cc2)cn1` [Calcium Salt of 5-(p-Chlorophenoxy)picolinic Acid] it is 350 to 400 mg/kg.
Take `CCCCc1ccc(C(=O)O)nc1` [Fusaric Acid, 5-n-butylpicolinic acid, reference compound]: the “anti-hypertensive activity (in words)” value in data set [5] is recorded as “useful as an anti-hypertensive agent”. Also, in data set [6], the “LD50 value (in words)” value is listed as “low LD50 value”. In addition, in data set [1], the inhibition in vivo at 100 mg/kg turned out to be 15.8%. In data set [2], this molecule returned an LD50 at 168 h of 75 to 100 mg/kg.
Take `O=C(Oc1ccc2c(c1)CCC2)c1ccc(Oc2ccccc2C(F)(F)F)cn1` [Indanyl Ester of 5-(o-Trifluoromethylphenoxy)picolinic Acid]: in data set [3], the inhibition in vivo at 100 mg/kg worked out at 26.3%.
As for `CN(C)CCOC(=O)c1ccc(OCCCCCl)cn1` [dimethylaminoethyl ester of 5-(4-chlorobutoxy)picolinic acid hydrochloride], the water solubility result in the data set “Water solubility” is given as “increased water solubility”.
In the case of `CCOC(=O)c1ccc(Oc2ccc(Cl)cc2)cn1` [ethyl ester of 5-(p-chlorophenoxy)picolinic acid], the inhibition in vivo at 100 mg/kg in data set [3] is 23.3%.
On the same count and under the same terms, the figure for `O=C(Oc1ccc2c(c1)CCC2)c1ccc(Oc2ccccc2Cl)cn1` [indanyl ester of 5-(o-chlorophenoxy)picolinic acid] is 29%.
Consider `O=C(Oc1ccc2c(c1)CCC2)c1ccc(Oc2ccc(Cl)cc2)cn1` [indanyl ester of 5-(p-chlorophenoxy)picolinic acid], for which, in data set [3], the inhibition in vivo at 100 mg/kg amounted to 27.5%. Also, the LD50 in “Oral LD50” fell in the range of 700 to 800 mg/kg.
The corresponding values for `CC(OC(=O)c1ccc(Oc2ccc(Cl)cc2)cn1)OC(=O)C(C)(C)C` (stereo not drawn) [α-pivaloyloxyethyl ester of 5-(p-chlorophenoxy)picolinic acid] are 21.8% and 900 to 1000 mg/kg.
